The values that follow come from ChEMBL document CHEMBL1201862, “PubChem BioAssay data set” (2004).

Test systems include A549; ACHN; DLD-1; DMS-273; HCT-116; KM-20L2; LXFL 529; M14; NCI-H460; NCI-H522; OVCAR-4; SF-268; SK-MEL-5; SK-OV-3; NCI-H226; NCI-H23.
Assay in all cases: NCI anticancer screen, dose series, 48 h

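Cells were grown in 96-well plates and exposed to each compound for 48 hours at five concentrations; endpoints were interpolated linearly between bracketing concentrations, or set to the highest concentration if not reached. The concentration for 50% growth inhibition is given as GI50.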 Activity calls are given as the source filed them. No stated cut-off is given here; in the data, active = GI50 up to about 1.1 µM and inactive = higher. Bounds are passed on as bounds.

In the case of `O=C(O)C1c2ccccc2C(C(=O)O)c2ccccc21` (stereo not drawn), the GI50 in the assay on A549, in the assay on ACHN, in the assay on DLD-1, in the assay on DMS-273, in the assay on HCT-116 and in the assay on KM-20L2 was > 100 µM (inactive) each time. The GI50 in the assay with LXFL 529, in the assay on M14, in the assay with NCI-H460, with NCI-H522, in the assay on OVCAR-4 and in the assay on SF-268 was > 100 µM (inactive) throughout. Moreover, the GI50 with SK-MEL-5 and in the assay on SK-OV-3 was > 100 µM (inactive) in each case.
For `COc1ccc(-c2ccccc2)c(N/N=C2\CCCNC2=O)c1`, the GI50 in the assay on A549 is 12.9 µM (inactive); in the assay with ACHN, > 100 µM (inactive); with DLD-1, > 100 µM (inactive); in the assay with DMS-273, > 100 µM (inactive); with HCT-116, 13.1 µM (inactive); with KM-20L2, > 100 µM (inactive). The GI50 in the assay on LXFL 529, in the assay on M14, in the assay on NCI-H226, in the assay on NCI-H23, in the assay on NCI-H460 and in the assay on NCI-H522 was > 100 µM (inactive) in each case. For the same compound, the GI50 in the assay on SF-268 was 43.5 µM (inactive); in the assay on SK-MEL-5, 28.2 µM (inactive); with SK-OV-3, 96.2 µM (inactive).
For `CC(C)OP(=O)(OC(C)C)/C(=N/Nc1ccc([N+](=O)[O-])cc1)NN`, the GI50 is 75.3 µM (inactive) in the assay on A549; 98.6 µM (inactive) in the assay on ACHN; > 100 µM (inactive) in the assay on DLD-1; > 100 µM (inactive) in the assay with DMS-273; > 100 µM (inactive) in the assay with HCT-116; > 100 µM (inactive) with KM-20L2. In addition, the GI50 in the assay with LXFL 529 is 41.5 µM (inactive); in the assay on M14, > 100 µM (inactive); in the assay with NCI-H226, 0.592 µM (active); with NCI-H23, 55.2 µM (inactive); with NCI-H460 it was > 100 µM (inactive); in the assay with NCI-H522 it was 47.8 µM (inactive). The GI50 in the assay with OVCAR-4 is > 100 µM (inactive); in the assay on SF-268, > 100 µM (inactive); in the assay on SK-MEL-5, 35.7 µM (inactive).
For the compound `CC1CC(c2ccc(Cl)c(Cl)c2)=Nc2ccccc2S1` (stereo not drawn), the GI50 with A549, in the assay with ACHN, in the assay with DLD-1, in the assay with DMS-273, in the assay on HCT-116 and in the assay on KM-20L2 was > 100 µM (inactive) in each case. Also, the GI50 in the assay on LXFL 529, in the assay on M14, in the assay on NCI-H226, with NCI-H23, in the assay on NCI-H460 and in the assay on NCI-H522 was > 100 µM (inactive) throughout. Further, the GI50 in the assay with OVCAR-4, in the assay with SF-268, with SK-MEL-5 and in the assay on SK-OV-3 was > 100 µM (inactive) in each case.
With `O=C1c2ccccc2C(=O)c2nc3c(O)cccc3cc21`, the GI50 in the assay on A549 is 17.8 µM (inactive); in the assay on ACHN, 27 µM (inactive); with DLD-1 it was 9.75 µM (inactive); in the assay on DMS-273 it was 6.61 µM (inactive); with HCT-116, 4.12 µM (inactive); in the assay with KM-20L2, 26.7 µM (inactive). For the same compound, the GI50 is 4.57 µM (inactive) in the assay on LXFL 529; 6.34 µM (inactive) with M14; 74.5 µM (inactive) with NCI-H226; > 100 µM (inactive) in the assay with NCI-H23; 9.08 µM (inactive) in the assay on NCI-H460; 4.97 µM (inactive) with NCI-H522. For the same compound, the GI50 with OVCAR-4 is 12.9 µM (inactive); in the assay with SF-268, 7.96 µM (inactive); in the assay on SK-MEL-5, 3.6 µM (inactive).
For the compound `CC(C)(C)/N=C/N1C=Cc2nc3ccccc3cc2C1`, the GI50 was > 100 µM (inactive) in the assay with A549; > 100 µM (inactive) with ACHN; 34.1 µM (inactive) in the assay on DLD-1; > 100 µM (inactive) in the assay on DMS-273; > 100 µM (inactive) with HCT-116; > 100 µM (inactive) in the assay with KM-20L2. Also, the GI50 was > 100 µM (inactive) in the assay with LXFL 529; > 100 µM (inactive) in the assay on M14; > 100 µM (inactive) in the assay with NCI-H23; 32.6 µM (inactive) in the assay on NCI-H460; > 100 µM (inactive) in the assay with NCI-H522; > 100 µM (inactive) in the assay on OVCAR-4. Besides, the GI50 with SF-268, in the assay on SK-MEL-5 and with SK-OV-3 was > 100 µM (inactive) each time.
Consider `O=C1C(Cl)=C(Cl)C(=O)N1C1C2CC3CC(C2)CC1C3` (stereo not drawn), for which the GI50 in the assay on A549 is > 100 µM (inactive); in the assay on ACHN, > 100 µM (inactive); in the assay with DLD-1, > 60.1 µM (inactive); in the assay on DMS-273, > 100 µM (inactive); in the assay with HCT-116 it was > 100 µM (inactive); with KM-20L2, > 100 µM (inactive). Further, the GI50 with LXFL 529 is 47.5 µM (inactive); in the assay with M14, > 100 µM (inactive); with NCI-H226, > 100 µM (inactive); with NCI-H23, > 100 µM (inactive); in the assay with NCI-H460, > 100 µM (inactive); in the assay with NCI-H522 it was 27.9 µM (inactive). Besides, the GI50 with OVCAR-4, in the assay on SF-268, in the assay on SK-MEL-5 and with SK-OV-3 was > 100 µM (inactive) in each case.
Take `O=C(c1cc2ccccc2[nH]1)C(O)(c1cc2ccccc2[nH]1)c1cc2ccccc2[nH]1`: the GI50 is > 246 µM (inactive) with A549; > 246 µM (inactive) in the assay with ACHN; > 246 µM (inactive) in the assay with DLD-1; > 246 µM (inactive) with DMS-273; 16.6 µM (inactive) with HCT-116; > 246 µM (inactive) in the assay with KM-20L2. The GI50 in the assay on LXFL 529 is > 246 µM (inactive); in the assay with NCI-H226, 50.9 µM (inactive); with NCI-H23, 112 µM (inactive); with NCI-H460, > 246 µM (inactive); in the assay with NCI-H522, > 246 µM (inactive); in the assay on SF-268, > 246 µM (inactive). Also, the GI50 with SK-MEL-5 and in the assay on SK-OV-3 was > 246 µM (inactive) each time.
`CCOC(=O)C(=O)Nc1c(CC)cccc1C(C)C`: the GI50 in the assay with A549, in the assay with ACHN, in the assay with DLD-1, in the assay on DMS-273, in the assay on HCT-116 and with KM-20L2 was > 100 µM (inactive) throughout. Further, the GI50 in the assay on LXFL 529, with M14, in the assay with NCI-H226, with NCI-H23, with NCI-H460 and in the assay on OVCAR-4 was > 100 µM (inactive) each time. The GI50 with SF-268 and with SK-OV-3 was > 100 µM (inactive) each time.
Regarding `CC1=C(O)C(=O)c2cn(C)cc2C1=O`, the GI50 in the assay on A549, with ACHN, with DLD-1, in the assay with DMS-273, in the assay on HCT-116 and in the assay with KM-20L2 was > 100 µM (inactive) in each case. The GI50 in the assay on LXFL 529, with M14, in the assay with NCI-H226, in the assay on NCI-H23, in the assay on NCI-H460 and with OVCAR-4 was > 100 µM (inactive) each time. The GI50 with SF-268, with SK-MEL-5 and in the assay with SK-OV-3 was > 100 µM (inactive) each time.
Regarding `CC(=O)c1sc(Nc2nnc(-c3ccc(-c4nnc(Nc5nc(C)c(C(C)=O)s5)o4)cc3)o2)nc1C`, the GI50 in the assay with A549 was > 10 µM (inactive); in the assay on ACHN, > 100 µM (inactive); in the assay on DLD-1 it was > 100 µM (inactive); with DMS-273 it was > 100 µM (inactive); in the assay with HCT-116, > 100 µM (inactive); with KM-20L2, > 100 µM (inactive). Also, the GI50 in the assay on LXFL 529 is > 100 µM (inactive); with M14, > 100 µM (inactive); in the assay on NCI-H226, > 100 µM (inactive); in the assay with NCI-H23, > 100 µM (inactive); with NCI-H460 it was > 100 µM (inactive); in the assay on NCI-H522, > 10 µM (inactive). Further, the GI50 in the assay on OVCAR-4 was > 100 µM (inactive); with SF-268, > 100 µM (inactive); with SK-OV-3, > 10 µM (inactive).
As for `O=C(CC1(O)C(=O)Nc2ccc(Br)cc21)c1cccc([N+](=O)[O-])c1` (stereo not drawn), the GI50 in the assay with A549 is > 100 µM (inactive); in the assay on ACHN, 60.5 µM (inactive); in the assay on DLD-1 it was 34.5 µM (inactive); in the assay on DMS-273, 45.8 µM (inactive); in the assay on KM-20L2, 74.6 µM (inactive); in the assay with LXFL 529, 22.5 µM (inactive). In addition, the GI50 is 48.8 µM (inactive) in the assay on M14; 26.9 µM (inactive) with NCI-H226; 43.9 µM (inactive) with NCI-H23; > 100 µM (inactive) in the assay with NCI-H460; 22.2 µM (inactive) in the assay with NCI-H522; 23.1 µM (inactive) in the assay with OVCAR-4. Further, the figures for the GI50 in the assay on SF-268, in the assay on SK-MEL-5 and with SK-OV-3 were 39 µM (inactive), > 10 µM (inactive) and > 100 µM (inactive), respectively.
`CNc1ccc2ncccc2c1[N+](=O)[O-]`: the GI50 with A549, in the assay with ACHN, in the assay on DLD-1, in the assay with DMS-273, in the assay with HCT-116 and in the assay on KM-20L2 was > 100 µM (inactive) each time. Also, the GI50 in the assay with LXFL 529, in the assay with M14, with NCI-H226, in the assay on NCI-H23, in the assay on NCI-H460 and with OVCAR-4 was > 100 µM (inactive) each time. Further, the GI50 in the assay on SF-268 and in the assay with SK-MEL-5 was > 100 µM (inactive) throughout.
